Measured values taken from patent publication US9994535B2, “Desferrithiocin polyether analogues” (University of Florida Research Foundation, Inc., priority 2005, dated 2018).

Columns and labels:
Assay type in all cases: in vivo
[1] = Iron clearing efficiency in iron-overloaded Cebus apella monkey model; conditions: primates, given either p.o. or s.c.
Protocol: Iron Chelators in a Cebus apella Monkey Model Studies were performed in the iron-overloaded monkey model with the compounds shown below: The protocol used can be found in Bergeron, R. J. et al., “Methoxylation of Desazadesferrithiocin Analogues: Enhanced Iron Clearing Efficiency,” J. Med. Chem. 46:1470-1477 (2003), the contents of which are incorporated herein by reference. Briefly, the monkeys were iron overloaded with iron dextran administered intravenously to result in an iron loading of about 500 mg per kg of body weight. At least 20 half-lives, 60 days, elapsed before the animals were used in experiments evaluating iron chelators. Fecal and urine samples were collected at 24 hour intervals beginning 4 days prior to the administration of an iron chelator and continued for 5 days after the chelator was administered. Iron concentrations in stool and urine were determined by flame atomic absorption spectroscometry. Iron chelator efficiency was calculated by dividing the net iron clearance [total iron excretion (stool plus urine) minus background] by the theoretical iron clearance and multiplying by 100. The theoretical clearance of the iron chelator was generated on the basis of a 2:1 ligand/iron complex.

[2] = Tissue and plasma concentrations upon subcutaneous administration to rats; conditions: rat
Protocol: Tissue Distribution of a Polyether-Substituted (S)-4′-Hydroxydesazadesferrithiocin Analogue [(S)-4′-(HO)-DADFT-PE] Upon Subcutaneous Administration to Rats
A measurement was made assessing (S)-4′-(HO)-DADFT-PE and (S)-4′-(HO)-DADFT tissue and plasma concentrations upon subcutaneous administration at times from 2-8 h post dosing. The rats were given this compound subcutaneously at 300 μmol/kg. The tissue and plasma level were obtained as described in Bergeron et al. J Med Chem. 48:821-831 (2005), the entire contents of which are incorporated herein by reference.

[3] = Iron clearing efficiency in non-iron overloaded, bile duct cannulated rat model; conditions: for Efficiency (%) (iron clearing efficiency): 300 μmol/kg, 24 hour iron excretion, 2:1 ligand-iron complex
Protocol: Iron Clearing Efficiency of Iron Chelators in a Non-Iron Overloaded, Bile Duct Cannulated Rat Model
Studies were performed in the non-iron overloaded, bile duct cannulated rodent model with the compounds shown below.
Briefly, male Sprague-Dawley rats averaging 450 g were housed in Nalgene plastic metabolic cages during the experimental period and given free access to water. The animals were anesthetized using sodium pentobarbital (55 mg/kg) administered intraperitoneally. The bile duct was cannulated using 22-gauge polyethylene tubing. The cannula was inserted into the duct about 1 cm from the duodenum and tied snugly in place. After threading through the shoulder, the cannula was passed from the rat to the swivel inside a metal torque-transmitting tether, which was attached to a rodent jacket around the animal's chest. The cannula was directed from the rat to a Gilson microfraction collector (Middleton, Wis.) by a fluid swivel mounted above the metabolic cage. Three hour bile samples were continuously collected for a minimum of 24 hours up to 48 hours. However, the efficiency calculations are based on the 24 hour iron excretion. The efficiency of each chelator was calculated on the basis of a 2:1 ligand-iron complex. The efficiencies in the rodent model were calculated by subtracting the iron excretion of control animals from the iron excretion of treated animals. This number was then divided by the theoretical output; the result is expressed as a percentage (Bergeron, R. J., et al., J. Med Chem. 42:95-108 (1999) the entire contents of which are incorporated herein by reference). The urine sample was taken at 24 hours and handled as previously described in Bergeron, R. J., et al., J. Med. Chem. 34:2072-2078 (1991), the entire contents of which are incorporated herein by reference.

SMILES: COCCOCCOCCOc1ccc(C2=N[C@@](C)(C(=O)O)CS2)c(O)c1 [(S)-4′-(HO)-DADFT-PE, (S)-4,5-Dihydro-2-[2-hydroxy-4-[2-[2-(2-methoxyethoxy)ethoxy]ethoxy]phenyl]-4-methyl-4-thiazolecarboxylic Acid]
- Iron clearing efficiency compared with (S)-4′-(HO)-DADFT [1]: at least as efficient as (S)-4′-(HO)-DADFT
- Tissue distribution (where most is found) ([2]; sc): found in the liver, kidney and pancreas
- Brain concentration of administered compound ([2]; sc 300 μmol/kg, 2 h): 0.5 ± 0.9 nmol/g wet wt
- Brain concentration of administered compound ([2]; sc 300 μmol/kg, 4 h): 0.0 ± 0.0 nmol/g wet wt
- Brain concentration of administered compound ([2]; sc 300 μmol/kg, 6 h): 0.0 ± 0.0 nmol/g wet wt
- Brain concentration of administered compound ([2]; sc 300 μmol/kg, 8 h): 0.0 ± 0.0 nmol/g wet wt
- Heart concentration of administered compound ([2]; sc 300 μmol/kg, 2 h): 9.2 ± 2.6 nmol/g wet wt
- Heart concentration of administered compound ([2]; sc 300 μmol/kg, 4 h): 5.3 ± 1.4 nmol/g wet wt
- Heart concentration of administered compound ([2]; sc 300 μmol/kg, 6 h): 0.0 ± 0.0 nmol/g wet wt
- Heart concentration of administered compound ([2]; sc 300 μmol/kg, 8 h): 2.0 ± 1.7 nmol/g wet wt
- Kidney concentration of administered compound ([2]; sc 300 μmol/kg, kidney, 2 h): 41.1 ± 3.0 nmol/g wet wt
- Kidney concentration of administered compound ([2]; sc 300 μmol/kg, kidney, 4 h): 33.7 ± 13.5 nmol/g wet wt
- Kidney concentration of administered compound ([2]; sc 300 μmol/kg, kidney, 6 h): 13.7 ± 2.1 nmol/g wet wt
- Kidney concentration of administered compound ([2]; sc 300 μmol/kg, kidney, 8 h): 7.4 ± 2.1 nmol/g wet wt
- Liver concentration of administered compound ([2]; sc 300 μmol/kg, 2 h): 131.6 ± 32.2 nmol/g wet wt
- Liver concentration of administered compound ([2]; sc 300 μmol/kg, 4 h): 66.9 ± 12.4 nmol/g wet wt
- Liver concentration of administered compound ([2]; sc 300 μmol/kg, 6 h): 34.3 ± 1.5 nmol/g wet wt
- Liver concentration of administered compound ([2]; sc 300 μmol/kg, 8 h): 25.4 ± 4.6 nmol/g wet wt
- Pancreas concentration of administered compound ([2]; sc 300 μmol/kg, 2 h): 29.6 ± 24.8 nmol/g wet wt
- Pancreas concentration of administered compound ([2]; sc 300 μmol/kg, 4 h): 12.6 ± 5.2 nmol/g wet wt
- Pancreas concentration of administered compound ([2]; sc 300 μmol/kg, 6 h): 4.6 ± 1.6 nmol/g wet wt
- Pancreas concentration of administered compound ([2]; sc 300 μmol/kg, 8 h): 2.7 ± 2.6 nmol/g wet wt
- concentration at 2 h ([2]; sc 300 μmol/kg, plasma, 2 h, read-out: Plasma concentration of administered compound): 16.2 ± 4.2 µM
- concentration at 4 h ([2]; sc 300 μmol/kg, plasma, 4 h, read-out: Plasma concentration of administered compound): 5.3 ± 2.6 µM
- concentration at 6 h ([2]; sc 300 μmol/kg, plasma, 6 h, read-out: Plasma concentration of administered compound): 1 ± 1 µM
- concentration at 8 h ([2]; sc 300 μmol/kg, plasma, 8 h, read-out: Plasma concentration of administered compound): 0 nM
- Metabolism back to (S)-4-(HO)DADFT ([2]; sc, any tissue): very little metabolism
- Kidney level compared with (S)-4-(HO)-DADFT ([2]; sc, kidney, any time point): much less of the PE in the kidney
- Efficiency (%) (iron clearing efficiency) ([3]; p.o.): 6.6 ± 1.9%
- Efficiency (%) (iron clearing efficiency) ([3]; s.c.): 8.7 ± 2.8%
- Iron clearing efficiency compared with parent drug (S)-4-(HO)-DADFT ([3]; same micromole per kilogram dose): work better than the parent drug
